Data: US8945853B2, “Detection of intracellular binding events by measuring protein abundance” (DiscoveRx Corporation, priority 2012, dated 2015)

What was measured:
CYP 17A-PL fusion = CYP 17A-PL fusion (Homo sapiens, UniProt P05093); experiment: CYP17A-PL fusion stabilization in HEK cells (FIG. 11); assay type: cell-based
Procedure: (§1) HEK cells were transduced with fusion protein expression construct. The cells were then treated with different compounds for 3-6 hrs at 37° C. the fusion proteins were then quantified to analyze the effect of different compounds on the stabilization of fusion proteins.

[1] = target: T1, CYP 19A amino acids 1-503-PL fusion (Homo sapiens, UniProt P11511); experiment: CYP19A-PL fusion stabilization in HEK cells; assay type: cell-based; conditions: data not shown
T1 construct: expressed in transfected cells; host or cells: HEK
T1 sequence (P11511 1-503): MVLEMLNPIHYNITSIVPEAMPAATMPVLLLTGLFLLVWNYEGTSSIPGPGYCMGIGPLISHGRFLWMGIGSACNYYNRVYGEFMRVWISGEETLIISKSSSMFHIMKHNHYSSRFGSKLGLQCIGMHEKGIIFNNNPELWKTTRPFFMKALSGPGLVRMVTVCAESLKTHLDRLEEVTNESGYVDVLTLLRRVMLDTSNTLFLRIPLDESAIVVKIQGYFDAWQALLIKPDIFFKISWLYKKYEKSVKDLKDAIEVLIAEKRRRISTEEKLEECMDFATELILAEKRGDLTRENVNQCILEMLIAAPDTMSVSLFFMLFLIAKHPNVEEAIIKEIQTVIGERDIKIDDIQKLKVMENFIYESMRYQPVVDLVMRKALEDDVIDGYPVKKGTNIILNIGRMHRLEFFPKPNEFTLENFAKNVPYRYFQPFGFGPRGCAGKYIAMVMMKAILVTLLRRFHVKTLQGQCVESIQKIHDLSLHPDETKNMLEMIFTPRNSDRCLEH
Procedure: as §1
Arimidex® anastrazole is available from AstraZeneca and is known to bind to aromatase. YM511 (chemical Name: 4-[[(4-Bromophenyl)methyl]-4H-1,2,4-triazol-4-ylamino]benzonitrile) is also an aromatase inhibitor. CYP19 is also known as aromatase.

G9A(918-1198)-PL = G9A(918-1198)-PL (Homo sapiens, UniProt Q96KQ7); experiment: Half-life of G9A catalytic domain-PL fusion in A549 cells after cycloheximide (FIG. 10); assay type: cell-based, humans
Procedure: Methyltransferases are a group of transferases enzymes involved in DNA methylation. G9a methyltransferase methylates lysine 9 of histone H3 and is present in humans.
The enzyme donor PL fused to the catalytic domain of G9A was expressed in A549 cells, which were plated I a 384-well plate and incubated overnight at 37° C./5% CO2 to allow the cells to attach and grow. […] Both the batches were then treated with cycloheximide to prevent further protein production and the half-life of the fusion protein in both the batches were calculated as shown in FIG. 10. […] UNC0638 is commercially available and is an inhibitor of G9a/GLP methyltransferases. See, e.g. http (colon slash slash) apps.thesgc.org/chemical_probes/UNC0638/#overview, SGC product literature.

BCL-2 / PL-Bax = BCL-2 / PL-Bax (Homo sapiens, UniProt P10415); experiment: BCL-2 co-expressed with PL-Bax in U2OS cells, disruption by small molecules (FIG. 7A); assay type: cell-based; conditions: for HillSlope / Bottom (best-fit) / Top (best-fit): PL-Bax; for Bottom (best-fit) / Top (best-fit) / effect on BCL-2 stabilization of Bax: U2OS, overnight; for Bottom (best-fit) / Top (best-fit): luminescence
Procedure: (§2) Interaction of BCL-2 with a peptide test compound (Bim, Bak, and Bax) was studied.
(§3) The native BCL-2 was co-expressed with each of the ProLabel fusions in U2OS cells. Small molecules that are reported to disrupt BCL-2 interactions were then applied to the cells and incubated overnight.
(§4) Cells were transduced with the indicated target PL-fusion and the untagged protein Bcl-2. The cells were treated with the indicated compounds overnight and the remaining target-PL fusion was detected by lysing the cells in the presence of EA and substrate. Luminescence was measured 30 minutes later.

BCL-2 / PL-Bim = BCL-2 / PL-Bim (Homo sapiens, UniProt P10415); experiment: BCL-2 co-expressed with PL-Bim in U2OS cells, disruption by small molecules (FIG. 7B); assay type: cell-based; conditions: for HillSlope / Bottom (best-fit) / Top (best-fit): PL-Bim; for Bottom (best-fit) / Top (best-fit) / effect on BCL-2/Bim stabilization: U2OS, overnight; for Bottom (best-fit) / Top (best-fit): luminescence
Procedure: as §2, §3, §4

BCL-2 / PL-Bak = BCL-2 / PL-Bak (Homo sapiens, UniProt P10415); experiment: BCL-2 co-expressed with PL-Bak in U2OS cells, disruption by small molecules (FIG. 7C); assay type: cell-based
Procedure: as §2, §3, §4

BRD4 (1)-PL fusion = experiment: Bromodomain-PL fusion stability in HEK cells; assay type: cell-based; conditions: 6 hrs at 37° C.
Procedure: To study the effect of compound binding, fusion proteins were prepared using fragments of BRD4 (1) (Accession No. NM_058243), BRD2 (1) (Accession No. NM_005104) and BRDT (1) (Accession No. NM_001242806) (SEQ ID NO. 13, 14 and 15 respectively) and prolabel (PL). The expression construct containing the fusion proteins were used to transducer the HEK cells. Cells were plated in a 384 well-plate and incubated overnight at 37° C./5% CO2 to allow the cells to attach and gro.

BLK (241-494)-PL fusion [2] = target: T2, BLK (241-494)-PL fusion (Homo sapiens, UniProt P51451); experiment: Specificity of binding compounds, BLK-PL fusion in U2OS cells (FIG. 9B); assay type: cell-based; parameters: BLK peptide containing amino acids from 241-494 were fused with the PL; expressed in transfected cells
BLK (241-494)-PL fusion [3] = target: T2, BLK (241-494)-PL fusion; experiment: BLK-PL fusions of varying sequence length treated with dasatinib, EFC chemiluminescence; assay type: cell-based; parameters: BLK peptide containing amino acids from 241-494 were fused with the PL; expressed in transfected cells; HEK cells are also named; conditions: 241-494 fusion compared with the other BLK sequence lengths; 3 hours
Procedure: A number of fusions were constructed that included varying amounts of the protein sequence centered around the kinase active site as defined by homology to other kinases. E.g. fusion containing protein BLK amino acid numbers 241-494, 246-494, 251-494, 256-494, 261-494 and 266-494 were made.
The expression construct containing the fusion protein was used to transduce the HEK cells. The cells were then incubated in the presence of dasatinib for 3 hours.
BLK-PL fusions were then quantified by adding lysis buffer, EA and chemiluminescent substrate. […] Dasatinib, N-(2-chloro-6-methylphenyl)-2-[[6-[4-(2-hydroxyethyl)-1-piperazinyl]-2-methyl-4-pyrimidinyl]amino]-5-thiazole carboxamide monohydrate, is an oral multi-BCR/ABL and Src family tyrosine kinase inhibitor approved for use in patients with chronic myelogenous leukemia (CML).
Results showing the binding of dasatinib to BLK containing amino acid sequence 241-494 are depicted in FIG. 3. The expression plasmids (e.g. 241-494) indicated in the legend are named to show the amino acid locations of the start and stop of the BLK sequence used. The plasmids were used to transduce parental U2OS cells. The cells were then treated with dasatanib for 3 hrs and the BLK-PL fusions were quantified by adding lysis buffer, EA and chemiluminescent substrate.

[4] = PL-Bak, U2OS, overnight, luminescence

T2 sequence (P51451 241-494): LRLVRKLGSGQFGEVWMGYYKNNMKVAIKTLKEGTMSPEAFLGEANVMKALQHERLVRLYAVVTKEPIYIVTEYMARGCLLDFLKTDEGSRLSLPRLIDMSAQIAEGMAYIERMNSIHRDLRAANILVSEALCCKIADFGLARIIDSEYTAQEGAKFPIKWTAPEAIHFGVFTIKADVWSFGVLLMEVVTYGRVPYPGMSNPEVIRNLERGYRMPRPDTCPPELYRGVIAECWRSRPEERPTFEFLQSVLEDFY
CYP 17A-PL fusion, sequence (P05093 with tags, fused parts or gaps): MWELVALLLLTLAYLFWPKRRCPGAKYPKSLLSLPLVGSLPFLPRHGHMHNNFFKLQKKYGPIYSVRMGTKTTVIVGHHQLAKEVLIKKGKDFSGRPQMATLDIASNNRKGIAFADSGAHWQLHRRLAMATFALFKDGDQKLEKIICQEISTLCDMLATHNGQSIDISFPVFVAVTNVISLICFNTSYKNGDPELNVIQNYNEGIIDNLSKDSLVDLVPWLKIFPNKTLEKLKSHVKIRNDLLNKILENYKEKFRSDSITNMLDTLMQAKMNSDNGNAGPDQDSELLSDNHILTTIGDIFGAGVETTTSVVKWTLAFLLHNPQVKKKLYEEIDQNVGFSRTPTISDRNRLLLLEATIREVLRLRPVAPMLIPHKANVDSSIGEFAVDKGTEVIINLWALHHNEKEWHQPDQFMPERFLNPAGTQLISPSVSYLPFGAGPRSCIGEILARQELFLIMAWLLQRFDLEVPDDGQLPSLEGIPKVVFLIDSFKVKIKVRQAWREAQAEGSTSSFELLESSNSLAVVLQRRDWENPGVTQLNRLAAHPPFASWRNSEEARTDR
BCL-2 / PL-Bax, sequence (P10415 whole entry): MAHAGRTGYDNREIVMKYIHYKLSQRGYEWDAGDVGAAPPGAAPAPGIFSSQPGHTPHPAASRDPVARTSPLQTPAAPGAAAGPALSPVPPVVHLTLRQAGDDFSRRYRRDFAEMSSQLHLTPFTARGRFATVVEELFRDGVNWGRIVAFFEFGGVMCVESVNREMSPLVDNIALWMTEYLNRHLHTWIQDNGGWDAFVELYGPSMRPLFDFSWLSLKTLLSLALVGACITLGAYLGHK
BCL-2 / PL-Bak, sequence (P10415 whole entry): as above
BCL-2 / PL-Bim, sequence (P10415 whole entry): as above
G9A(918-1198)-PL, sequence (Q96KQ7 with tags, fused parts or gaps): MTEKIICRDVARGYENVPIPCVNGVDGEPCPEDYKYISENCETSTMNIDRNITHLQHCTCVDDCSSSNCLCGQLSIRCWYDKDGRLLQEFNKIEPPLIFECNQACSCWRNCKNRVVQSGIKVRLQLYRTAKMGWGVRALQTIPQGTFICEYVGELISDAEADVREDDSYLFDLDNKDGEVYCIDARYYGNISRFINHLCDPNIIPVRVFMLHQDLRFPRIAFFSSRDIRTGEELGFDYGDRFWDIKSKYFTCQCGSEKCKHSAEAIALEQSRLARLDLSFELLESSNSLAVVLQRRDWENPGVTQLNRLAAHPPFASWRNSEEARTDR

CC(=O)N1CCN(c2ccc(OCC3COC(Cn4ccnc4)(c4ccc(Cl)cc4Cl)O3)cc2)CC1 (stereo not drawn) [Ketoconazole]
HillSlope (CYP 17A-PL fusion): 1083
stabilization of CYP 17 A domain fusion (CYP 17A-PL fusion; HEK cells, 3-6 hrs): stabilization
Bottom (best-fit) (CYP 17A-PL fusion; HEK cells, 3-6 hrs at 37° C.): 1.230e+006
Top (best-fit) (CYP 17A-PL fusion; HEK cells, 3-6 hrs at 37° C.): 2.348e+006

CC(C)(C#N)c1cc(Cn2cncn2)cc(C(C)(C)C#N)c1 [anastrazole]
stabilization of CYP 19A fusion peptide [1]: stabilized

C[C@]12CC[C@H](O)CC1=CC[C@@H]1[C@@H]2CC[C@]2(C)C(c3cccnc3)=CC[C@@H]12 [Abiraterone]
EC50 (CYP 17A-PL fusion; stabilization, gain of signal): 0.252 nM

COc1cc2c(NC3CCN(C(C)C)CC3)nc(C3CCCCC3)nc2cc1OCCCN1CCCC1 [UNC0638]
half-life of fusion protein compared to fusion protein not exposed to the binding partner (G9A(918-1198)-PL; A549 cells, cycloheximide): greater
percent change in luminescence (G9A(918-1198)-PL; after 100 minutes of cycloheximide, A549 cells pretreated 6 hrs): minimal

CN(C)CC[C@H](CSc1ccccc1)Nc1ccc(S(=O)(=O)NC(=O)c2ccc(N3CCN(Cc4ccccc4-c4ccc(Cl)cc4)CC3)cc2)cc1[N+](=O)[O-] [ABT-737]
HillSlope (BCL-2 / PL-Bax): −1.485
Bottom (best-fit) (BCL-2 / PL-Bax): 6973
Top (best-fit) (BCL-2 / PL-Bax): 31292
effect on BCL-2 stabilization of Bax (BCL-2 / PL-Bax): somewhat similar effect
HillSlope (BCL-2 / PL-Bim): −1.898
Bottom (best-fit) (BCL-2 / PL-Bim): 7774
Top (best-fit) (BCL-2 / PL-Bim): 139290
effect on BCL-2/Bim stabilization (BCL-2 / PL-Bim): prevented the stabilizing effect
HillSlope (BCL-2 / PL-Bak; PL-Bak): −0.5348
Bottom (best-fit) (BCL-2 / PL-Bak; [4]): 5446
Top (best-fit) (BCL-2 / PL-Bak; [4]): 11602
effect on BCL-2 binding to and stabilization of Bak (BCL-2 / PL-Bak; overnight, U2OS): little effect

N#Cc1ccc(N(Cc2ccc(Br)cc2)n2cnnc2)cc1 [YM511, 4-[[(4-Bromophenyl)methyl]-4H-1,2,4-triazol-4-ylamino]benzonitrile]
stabilization of CYP 19A fusion peptide [1]: stabilized

Cc1sc2c(c1C)C(c1ccc(Cl)cc1)=N[C@@H](CC(=O)OC(C)(C)C)c1nnc(C)n1-2 [JQ1]
stability of fusion protein following compound binding (BRD4 (1)-PL fusion): increase in stability

CC1(C)CCC(c2ccc(Cl)cc2)=C(CN2CCN(c3ccc(C(=O)NS(=O)(=O)c4ccc(N[C@H](CCN5CCOCC5)CSc5ccccc5)c(S(=O)(=O)C(F)(F)F)c4)cc3)CC2)C1 [ABT-263]
HillSlope (BCL-2 / PL-Bax): −1.216
Bottom (best-fit) (BCL-2 / PL-Bax): 5900
Top (best-fit) (BCL-2 / PL-Bax): 31800
effect on BCL-2 stabilization of Bax (BCL-2 / PL-Bax): somewhat similar effect
HillSlope (BCL-2 / PL-Bim): −1.635
Bottom (best-fit) (BCL-2 / PL-Bim): 6740
Top (best-fit) (BCL-2 / PL-Bim): 136900
effect on BCL-2/Bim stabilization (BCL-2 / PL-Bim): prevented the stabilizing effect
HillSlope (BCL-2 / PL-Bak; PL-Bak): −0.4082
Bottom (best-fit) (BCL-2 / PL-Bak; [4]): −14342
effect on BCL-2 binding to and stabilization of Bak (BCL-2 / PL-Bak; overnight, U2OS): little effect

Cc1nc(Nc2ncc(C(=O)Nc3c(C)cccc3Cl)s2)cc(N2CCN(CCO)CC2)n1.O [dasatinib, N-(2-chloro-6-methylphenyl)-2-[[6-[4-(2-hydroxyethyl)-1-piperazinyl]-2-methyl-4-pyrimidinyl]amino]-5-thiazole carboxamide monohydrate]
binding specificity (BLK (241-494)-PL fusion [2]; BLK-PL vs MEK-PL fusions): specific for binding to the BLK fusion containing the ATP binding site
signal (BLK-PL fusion) compared to cells incubated with U0126 and PD035901 (BLK (241-494)-PL fusion [2]; U2OS cells, over a period of time): gain in signal
affinity of BLK-PL fusion with dasatinib (BLK (241-494)-PL fusion [3]): highest affinity
